Data published in patent US12410157B2, “Compound useful as toll-like receptor 7 activation inhibitor” (TOYAMA PREFECTURAL UNIVERSITY, priority 2020, dated 2025).

Key:
[1] = test system: Cytochrome P450 (CYP), mouse liver microsomes; test: Metabolic stability (CYP) using mouse liver microsomes, HPLC; assay type: in vitro ADME; settings: for Area (%) of peak: LC-UV (220 nm)
Method: For CB-7, B2-24, and B2-5A, 10 mg/mL DMSO solution was used. Each chemical compound was diluted with acetonitrile to 0.1 mg/mL, which was used as the analytical standard. Mouse liver microsomal fractions were rapidly thawed in a warm bath at 37° C. and kept on ice. Reaction buffer containing CYP cofactor was prepared on ice and mixed with the microsomal fractions. The reaction solution was preincubated at 37° C. for 5 minutes, and then the test substance solution was added and mixed well by pipetting. The volume of the reaction solution was 200 μL and the final concentration of the test substance was 0.1 mg/mL. The reaction solution was incubated at 37° C. for 30 minutes or 2 hours, and the reaction was stopped by adding 3 times the volume of acetonitrile and vortexing. After the reaction was stopped, the samples were centrifuged, and each supernatant was separated and dried in an evaporator. 50 μL of 50% acetonitrile solution was added to each solidified sample, and each sample was re-dissolved by vortexing for 5 minutes. Each redissolved solution was centrifuged, and each supernatant was subjected to HPLC analysis using a HITACHI Lachrom ELITE (HITACHI) as a HPLC system and COSMOSIL 5C18-MS-II, 4.6 mmI.D.×150 mm (nacalai tesque Co.) as a column.
Metabolic stability analysis of CB-7 and B2-24-4-5A·HCOOH was performed by the method of Example 5.

mouse TLR7 = target: T1, mouse TLR7 (Mus musculus, UniProt P58681); test: Inhibition of TLR7 activation in mouse TLR7-expressing NF-κB-GFP reporter Ba/F3 cells; assay type: cell-based; settings: Example 5, Table 5; method of Example 2; read-out: IC50
T1 construct: expressed in transfected cells; host or cells: Ba/F3 cells (provided by Prof. Kensuke Miyake, University of Tokyo)
T1 sequence (P58681 27-1050): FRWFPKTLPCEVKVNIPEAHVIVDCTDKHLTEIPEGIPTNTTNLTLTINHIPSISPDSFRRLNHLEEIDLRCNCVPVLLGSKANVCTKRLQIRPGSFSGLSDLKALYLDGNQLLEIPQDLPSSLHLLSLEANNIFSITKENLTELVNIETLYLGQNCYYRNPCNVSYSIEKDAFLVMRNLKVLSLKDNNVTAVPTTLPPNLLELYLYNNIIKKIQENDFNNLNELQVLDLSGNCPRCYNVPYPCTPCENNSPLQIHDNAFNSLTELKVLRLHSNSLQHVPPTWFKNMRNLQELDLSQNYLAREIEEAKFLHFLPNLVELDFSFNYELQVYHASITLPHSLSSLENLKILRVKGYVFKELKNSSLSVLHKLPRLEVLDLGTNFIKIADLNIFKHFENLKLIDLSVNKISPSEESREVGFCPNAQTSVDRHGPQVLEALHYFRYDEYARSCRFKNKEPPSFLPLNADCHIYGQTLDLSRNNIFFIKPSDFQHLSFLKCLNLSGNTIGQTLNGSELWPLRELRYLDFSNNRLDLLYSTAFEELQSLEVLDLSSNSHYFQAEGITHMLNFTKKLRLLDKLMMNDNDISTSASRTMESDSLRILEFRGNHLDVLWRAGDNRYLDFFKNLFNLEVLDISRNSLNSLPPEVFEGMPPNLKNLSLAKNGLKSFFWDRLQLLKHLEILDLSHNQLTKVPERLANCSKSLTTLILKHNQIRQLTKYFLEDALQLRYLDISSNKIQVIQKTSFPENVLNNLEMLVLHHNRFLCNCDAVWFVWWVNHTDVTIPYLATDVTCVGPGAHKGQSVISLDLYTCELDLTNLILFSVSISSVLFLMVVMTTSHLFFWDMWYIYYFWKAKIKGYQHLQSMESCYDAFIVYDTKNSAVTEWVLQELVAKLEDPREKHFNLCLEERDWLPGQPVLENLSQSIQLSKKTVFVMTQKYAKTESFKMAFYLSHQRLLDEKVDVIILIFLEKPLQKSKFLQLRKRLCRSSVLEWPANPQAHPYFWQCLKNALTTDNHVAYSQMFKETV
Source text: Mouse TLR7-expressing reporter cells (Ba/F3 cells) were used to evaluate inhibition of TLR7 activation in each derivative and CB-7. These cells were provided by Professor Kensuke Miyake (Department of Infection Genetics, Institute of Medical Science, University of Tokyo). These cells have been transfected with a reporter gene that connects GFP gene downstream of the promoter region of NF-κB. Therefore, the expression of GFP is enhanced by the addition of a ligand for TLR7 expressed by the cells. The fluorescence intensity of GFP was attenuated by the addition of each derivative, and the inhibition of TLR7 activation by each derivative was evaluated as an indicator.
Loxoribine (Alexis Biochemicals) was used as the ligand for mouse TLR7. Gardiquimod (Invivogen) was used as the ligand for human TLR7.
Ba/F3 cells cultured in RPMI 1640 medium containing 10% (v/v) fetal calf serum (FCS), 50 U/mL penicillin, 50 μg/mL streptomycin, 2 mM L-glutamine, […] 2-mercaptoethanol, 1 ng/mL interleukin-3 were aliquoted into 96-well plates so that the number of cells per well was 1.0×10^5 cells/100 μL. 50 μL of each derivative or CB-7, prepared to final concentrations of 1, 5, 10, 25, 50, and 100 µM, was added to each well. 96-well plates were incubated at 37° C. for 30 minutes in the presence of 5% CO2. Next, 250 μg/mL Roxoribin was added to each well and incubated for 18 hours. At the end of incubation, cells were washed with PBS (FACS buffer) containing 2.5% (v/v) FCS and suspended in 200 μL of FACS buffer containing 25 μg/mL […] for each cell. GFP fluorescence intensities of the cells were analyzed by flow cytometry. Flow cytometry measurement was performed on a FACSCanto™ II (Becton Dickinson) and data were analyzed with FlowJo software (Tree Star). The MFI (%) upon stimulation with roxoribin in the presence of […] derivatives or CB-7 was calculated using the MFI upon stimulation with roxoribin alone as 100%, and then IC50 (chemical compound concentration that inhibits activity by 50%) was calculated by logistic regression analysis.
The evaluation of the TLR7 activation inhibition by B2-24-4-5A·HCOOH was performed by the method described in Example 2. CB-7 and B2-24-4·HCl were used as controls.

[2] = Plasma concentration in normal mice after oral administration; assay type: in vivo, mice (C57BL/6N); settings: C57BL/6N mice, 1 mg orally
Method: Plasma concentrations of CB-7 or B2-24-4-5A·HCOOH were measured in normal mice (C57BL/6N, 11 weeks old, female) after oral administration. 1 mg of CB-7 or B2-24-4-5A·HCOOH was administered orally to mice C57BL/6N. After 0.5, 1, 2, 4, or 8 hours, blood was collected from mice C57BL/6N to prepare plasma. The concentration of CB-7 or B2-24-4-5A·HCOOH in the plasma was measured by LC/MS/MS.

SMILES: C=C(C)[C@@H]1CC[C@]2(COC(=O)C2)C[C@H]1c1ccc(CN2CCNCC2)cc1 [B2-24-4-5A·HCOOH]
- Number of peaks detected by HPLC ([1]; Example 9): 6
- Area (%) of peak ([1]; Example 9, 0 h): 100%
- Area (%) of peak ([1]; Example 9, incubation 0.5 h): 95.4%
- Area (%) of peak ([1]; Example 9, incubation 2.0 h): 88.4%
- Drug metabolism mainly by CYPs compared to CB-7 ([1]; words): significantly improved drug metabolism
- IC50 (mouse TLR7): 167 nM
- Persistence in plasma compared to CB-7 [2]: remains in plasma for a longer time than CB-7
- concentration at 8 h ([2]; female, mouse, plasma, po, LC/MS/MS): ~500 ng/mL
